Assay results taken from patent publication US20140161729A1, “COFLUORONS AND METHODS OF MAKING AND USING THEM” (CORNELL UNIVERSITY, priority 2011, published 2014).

Key:
[1] = Fluorescence measurements of cofluoron models (linker element monomers and their multimers with boronic acids); format: physicochemical; details: for fluorescence change on addition to linker element SL1 (2-hydroxy-3-naphthalenecarboxamide) / fluorescence change on addition to linker element SL3 (gallic acid ethanolamide): boronic acid 300 μM; for fluorescence change on addition to linker element SL1 (2-hydroxy-3-naphthalenecarboxamide): SL1 100 μM, FIG. 6A; for fluorescence change on addition to linker element SL3 (gallic acid ethanolamide): SL3 100 μM, FIG. 6B
[2] = test system: human mast cell line; assay: Intracellular fluorescence of cofluorons (microscopy under UV excitation); format: cell-based; details: 100 μM (each) cofluoron monomer
Protocol: Human mast cell β2-tryptase containing cells, grown in standard media, were incubated with 100 μM monomer 1 for 15 minutes at room temperature, followed by the addition of 100 μM monomer 2. Stock concentrations of cofluorons, 50 mM in DMSO, were diluted in media immediately before use. For localization studies, 10.5% PEG and 0.0005% berberine were added to costain mast cell granules. Fluorescent signals were detected using an inverted CKX41 Olympus microscope under UV excitation and an 100× oil immersion lens. Images were recorded using an Olympus DP20 digital camera.

[3] = Fluorescence measurements of cofluoron monomers and multimers without target; format: physicochemical; details: for maximum fluorescence emission / wavelength of maximum emission: 100 μM (each), 0.1M phosphate pH 7.4, 100 μM EDTA, excited at 300 nM
Protocol: The fluorescence properties of cofluorons were measured in 0.1M HEPES or 0.1M phosphate buffer at pH 7.4 in 96- or 384-well black plates using a Molecular Dynamics SpectraMax M5 plate reader. Cofluoron samples were excited at discrete wavelengths and the fluorescence emission was scanned across a range of wavelengths (between 400 and 750 nm). The fluorescence properties of individual cofluoron monomers, as well as the fluorescent properties of cofluoron multimers formed by association of different combinations of cofluoron monomers, were tested and compared.
Fluorescence emission spectra were recorded for cofluoron monomers T147 and T27F individually at a concentration of 100 μM as well as in combination where each cofluoron monomer was at a concentration of 100 μM, in a 0.1M phosphate buffer at pH 7.4 containing 100 μM EDTA. The samples were excited at 300 nM and fluorescence emissions were measured between 300-750 nm on a Spectramax M5 spectrofluorometer. […] The fluorescence emission was enhanced to 4062 RFU and the emission wavelength shifted to 420 nm when the two cofluoron monomers were combined (See FIG. 19).
FIGS. 21 through 34 show the results of fluorescent measurements on the monomers T27 or T27F containing a dihydroxy moiety and multimers formed by mixing the dihydroxy compound with various monomer binding partners containing a boronic acid. These multimers have increased affinity for human mast cell β2-tryptase as compared to the monomers. The fluorescence properties of cofluorons were measured 0.1M phosphate buffer at pH 7.4 containing either 100 or 200 μM EDTA, in 96- or 384-well black plates using a Molecular Dynamics SpectraMax M5 plate reader. Cofluoron samples were excited at discrete wavelengths and the fluorescence emission was scanned across a range of wavelengths (between 400 and 750 nm).

[4] = target: Tryptase (Homo sapiens, UniProt P20231); assay: Fluorescence of cofluoron pairs in the presence or absence of Tryptase; format: binding; details: phosphate buffer pH 7.4, 200 mM NaCl, excited at 360 nm
Protocol: The fluorescence emission measurements on cofluorons binding to the target tryptase were measured in 0.1M HEPES or 0.1M phosphate buffer at pH 7.4 in 96- or 384-well black plates using a Molecular Dynamics SpectraMax M5 plate reader. Cofluoron samples were excited at discrete wavelengths and the fluorescence emission was scanned across a range of wavelengths (between 400 and 750 nm). The fluorescence properties of cofluoron monomers and cofluoron multimers in the presence of 3 μM tryptase as well as in the absence of tryptase were measured and compared.
To test whether the cofluorons retained their fluorescence when binding to the target Tryptase, fluorescence were measured on the cofluoron multimers formed by mixing 6 μM T43 with 6 μM T34, T11, T35, and T37, respectively, in the presence or absence of 5 μM Tryptase, in aqueous 50 μM phosphate buffer (pH 7.4) containing 200 mM NaCl. Excitation was at 360 nm, and the portion of emission containing meaningful signal is between 400 nm and 550 nm.

[5] = target: human mast cell β2-tryptase (Homo sapiens, UniProt P20231); assay: Binding of cofluoron monomers and dimers to tryptase (IC50, affinity); details: 1:1 combination with T27 or T27F
[6] = 100 μM 2-hydroxy-3-naphthalenecarboxamide + 300 μM boronic acid, 0.1M phosphate pH 7.4, 50% DMSO, excited at 350 nm

Chain of Tryptase (P20231 31-275): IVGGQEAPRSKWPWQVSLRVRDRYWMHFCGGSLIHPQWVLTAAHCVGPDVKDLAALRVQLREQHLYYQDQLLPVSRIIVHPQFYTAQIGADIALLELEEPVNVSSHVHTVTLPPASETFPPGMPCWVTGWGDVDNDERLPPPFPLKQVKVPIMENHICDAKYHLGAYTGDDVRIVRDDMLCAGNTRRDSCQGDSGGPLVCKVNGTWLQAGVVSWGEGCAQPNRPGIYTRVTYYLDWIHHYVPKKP
Chain of human mast cell β2-tryptase (P20231 31-275): as above

For CN(C)c1ccc(B(O)O)cn1 [2-(N,N-dimethylamino)pyridine-5-boronic acid], the “increase in fluorescence emission intensity of 7,8-dihydroxy-4-methylcoumarin on forming oligomer with boronic acid partner” value ([1]; 100 μM 7,8-dihydroxy-4-methylcoumarin + 300 μM boronic acid, 0.1M phosphate pH 7.4, 50% DMSO, excitation 350 nm, emission 520 nm) was “did not provide any enhanced signal”.

With OCc1ccccc1B(O)O [2-(hydroxymethyl)phenylboronic acid] the “enhancement of fluorescent emission signals at 460 nm over monomer methyl 3,4,5-trihydroxybenzoate” value ([1]; 100 μM methyl 3,4,5-trihydroxybenzoate + 300 μM boronic acid, 0.1M phosphate pH 7.4, 50% DMSO, excited at 350 nm) was “about 7 fold”.

In the case of OB(O)c1ccccc1F [2-fluorophenylboronic acid], the “fluorescent emission intensity at 390 nm, fold higher than 3,4,5-trihydroxybenzamide alone” value ([1]; multimer with 3,4,5-trihydroxybenzamide, 100 μM each, 0.1M HEPES pH 7.9, 50% DMSO, excited at 340 nm) is reported as 10 fold.

With OB(O)c1cccnc1F [2-fluoropyridine-3-boronic acid] the “enhancement of fluorescent emission signal at 420 nm over monomer 2-hydroxy-3-naphthalenecarboxamide” value [1, 6] was “more than 80 fold”.

With NC(=O)c1cc2ccccc2cc1O [2-hydroxy-3-naphthalenecarboxamide, 2-Hydroxy-3-naphthalenecarboxamide] the fluorescent emission maximum ([1]; 2-hydroxy-3-naphthalenecarboxamide 100 μM, alone or with 300 μM boronic acids, 0.1M phosphate pH 7.4, 50% DMSO, excited at 350 nm) was 500 nm and the fluorescent emission maximum ([1]; 2-hydroxy-3-naphthalenecarboxamide alone or with boronic acids, phosphate pH 7.4, absence of DMSO, excited at 350 nm) was “about 510 nm”.

With OB(O)c1cccnc1F [2b, 2-fluoropyridine-3-boronic acid] the “fluorescence change on addition to linker element SL1 (2-hydroxy-3-naphthalenecarboxamide)” value [1] was “stronger fluorescent signal, as well as a fluorescent emission wavelength shift to a lower wavelength” and the “fluorescence change on addition to linker element SL3 (gallic acid ethanolamide)” value (shortened to “fluorescence change … (gallic acid ethanolamide)”) [1] was “stronger fluorescent signal, as well as a fluorescent emission wavelength shift to a higher wavelength”.

With OB(O)c1cc(F)cc(F)c1 [2c, 3,5-difluorophenylboronic acid] the “fluorescence change on addition to linker element SL1 (2-hydroxy-3-naphthalenecarboxamide)” value [1] was “stronger fluorescent signal, as well as a fluorescent emission wavelength shift to a lower wavelength” and the “fluorescence change … (gallic acid ethanolamide)” value [1] was “stronger fluorescent signal, as well as a fluorescent emission wavelength shift to a higher wavelength”.

With OB(O)c1cc2ccccc2o1 [2d, benzofuran-2-boronic acid] the “fluorescence change on addition to linker element SL1 (2-hydroxy-3-naphthalenecarboxamide)” value [1] was “stronger fluorescent signal, as well as a fluorescent emission wavelength shift to a lower wavelength” and the “fluorescence change … (gallic acid ethanolamide)” value [1] was “stronger fluorescent signal, as well as a fluorescent emission wavelength shift to a higher wavelength”.

For OB(O)c1cc(F)cc(F)c1 [3,5-difluorophenylboronic acid], the “enhancement of fluorescent emission signal at 420 nm over monomer 2-hydroxy-3-naphthalenecarboxamide” value [1, 6] was “about 40 fold” and the “fluorescent signal enhancement of multimer with 2-hydroxy-3-naphthalenecarboxamide” value ([1]; 100 μM 2-hydroxy-3-naphthalenecarboxamide + 300 μM boronic acid, phosphate pH 7.4, absence of DMSO, excited at 350 nm) was 30 fold.

In the case of Cl.NCc1cccc(C2CCN(C(=O)/C=C/c3ccc(O)c(O)c3)CC2)c1 [T24, (E)-1-(4-(3-(aminomethyl)phenyl)piperidin-1-yl)-3-(3,4-dihydroxyphenyl)prop-2-en-1-one hydrochloride], the “fluorescent staining of cells” value [2] is reported as “somewhat brighter staining”.

With NCc1ccc(F)c(C2CCN(C(=O)c3cccc4cc(O)c(O)cc34)CC2)c1 [T27F] the maximum fluorescence emission [3] was 380 RFU and the “wavelength of maximum emission” value [3] was 520 nm.

For NCc1cccc(C2CCN(C(=O)/C=C/c3cccc(B(O)O)c3)CC2)c1 [T34], the “fluorescent signal of dimer with T43 in the absence of tryptase” value ([4]; 6 μM each) was “hardly any fluorescent signal” and the “fluorescent signal enhancement in the presence of tryptase versus in the absence of tryptase” value ([4]; pair with T43, 6 μM each, 5 μM Tryptase) was 3 fold.

In the case of NCc1cccc(C2CCN(C(=O)c3cccc4sc(B(O)O)cc34)CC2)c1 [T37], the “fluorescent signal enhancement of multimer formed with T43, among all multimers tested” value ([3]; 100 μM T43 + 100 μM partner, 0.1M phosphate pH 7.4 aqueous, excited at 360 nm) is reported as “strongest fluorescent signal enhancements”.

With NCc1cccc(C2CCN(C(=O)/C=C/c3cc(O)c(O)c(O)c3)CC2)c1 [T43] the “fluorescent signal between 400 nm and 550 nm, monomer without boronic acid partner” value ([4]; 6 μM) was “essentially no fluorescent signal” and the emission peak ([3]; T43 100 μM, alone or with 100 μM boronic acid partners, 0.1M phosphate pH 7.4 aqueous, excited at 360 nm) was 440 nm.

In the case of CN(Cc1ccccc1B(O)O)c1ccc(C(=O)N2CCC(c3cccc(CN)c3)CC2)cc1 [T147, (2-(((4-(4-(3-(aminomethyl)phenyl)piperidine-1-carbonyl)phenyl)(methyl)amino)methyl)phenyl)boronic acid], the maximum fluorescence emission [3] is reported as 194 RFU, the “wavelength of maximum emission” value [3] is reported as 390 nm and the “affinity to human β-tryptase of dimer versus monomers” value [5] is reported as “higher affinity to human β-tryptase than either monomer”.

For OB(O)c1cc2ccccc2o1 [benzofuran-2-boronic acid], the “enhancement of fluorescent emission signal at 420 nm over monomer 2-hydroxy-3-naphthalenecarboxamide” value [1, 6] was “about 40 fold”.

For COC(=O)c1cc(O)c(O)c(O)c1 [methyl 3,4,5-trihydroxybenzoate], the fluorescent emission peak ([1]; methyl 3,4,5-trihydroxybenzoate 100 μM, alone or with 300 μM boronic acids, 0.1M phosphate pH 7.4, 50% DMSO, excited at 350 nm) was “about 390 nm”.
